Results on 1 compound are retold here after US20250186445A1, “TREATMENT OF CANCER WITH MENIN INHIBITORS AND IMMUNO-ONCOLOGY AGENTS” (University Health Network, priority 2022, published 2025).

One assay relates to MC38 cells. As to the kind of experiment: Cytokine gene expression in MC38 cells in 2D culture treated with Compound I. Format: cell-based. Particulars: FIG. 5B.
Assay [1] deals with CT26 colorectal carcinomas. The assay is described as follows: CT26 colorectal carcinoma tumor growth in immunocompetent (BALB/c) mice. Format: in vivo, mouse. The text has this:
Effects of Compound I in combination with PD-L1/PD-1 immune checkpoint blockade on tumor growth were investigated in CT26 tumors.

For another assay, the system named is CT26 cells. The assay is described as follows: Cytokine gene expression in CT26 cells in 2D culture treated with Compound I. Format: cell-based, mouse. Particulars: FIG. 5A.

The structures appear in SMILES notation. Entries after “also recorded” stand apart in the source; their conditions may differ.

For `CNc1nc(NC2CCN(Cc3ccc4c(cc(C#N)n4C[C@H](C)N4CCN(S(C)(=O)=O)CC4)c3C)CC2)c2cc(CC(F)(F)F)sc2n1` [Compound I], the cytokine gene expression result with MC38 cells is listed as “induces cytokine gene expression”. Also, the tumor growth result in assay [1] (BALB/c mice bearing CT26, 100 mg/kg orally QD, FIG. 6A) is on record as “reduced tumor growth”. In addition, the “CD8+ T-cell infiltration” value in assay [1] (CT26 tumors in BALB/c mice, FIGS. 6B-C) is given as “increased CD8+ T-cell infiltration”. Also, the “reduction in tumor growth with concomitant anti-CD8 antibody” value in assay [1] (CT26 tumors in BALB/c mice, concomitant anti-CD8 antibody, FIG. 6D) is given as “could be blocked”. In addition, the “CT26 tumor growth, combination of Compound I and anti-PD-1 antibody” value in assay [1] (CT26 tumors, combination with anti-PD-1 antibody, FIG. 7) is given as “the combination enhanced the activity of anti-PD1 immunotherapy”. Moreover, the “CT26 tumor growth, single agent” value in assay [1] (CT26 tumors, each agent alone, FIG. 7) was “substantially reduced”. Also, in the assay on CT26 cells, the “induction of cytokine-related genes (IL33, CXCL10, CXCL9, CD40, CCL4)” value is “Dose-dependent induction; also recorded: induces cytokine gene expression”.
